From patent US8507219B2, “Method of treating inflammation with statins” (MUSC Foundation for Research Development, priority 1997, dated 2013)
Entries after “also recorded” stand apart in the source; their conditions may differ.

Assays:
[1] = system: ceramide production in rat primary astrocytes; test: Degradation of sphingomyelin to ceramide (DAG kinase assay, HPTLC) in rat primary astrocytes; type: cell-based; conditions: 10 mM NAC or 100 μM PDTC 1 h before TNF-α or IL-1β (50 ng/ml), diamide 0.5 mM or aminotriazole 5 mM
Procedure, shortened: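 About 1.0×10^6 cells were exposed to cytokines with or without antioxidants for various periods, then lipids were extracted. Sphingomyelin was separated by HPTLC and quantified by densitometry. Ceramide was phosphorylated with DAG kinase and [γ-^32P]ATP, and ceramide 1-phosphate was resolved by TLC and quantified by autoradiography/densitometry, expressed as arbitrary absorbance units or percent change.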

[2] = system: rat primary oligodendrocytes; test: Apoptosis (DNA fragmentation, laddering) in rat primary oligodendrocytes; type: cell-based; conditions: 10 mM NAC 1 h; diamide 0.5 mM, TNF-α 50 ng/ml or C2-ceramide; 12 h
Protocol: Detection of DNA fragmentation Cells (1×10^6) were pelleted in an eppendorf tube by centrifugation at 1,000 rpm for 5 min, washed with PBS (pH 7.4), resuspended gently in 50 μl of a lysis buffer [200 mM NaCl, 10 mM Tris-HCl (pH 8.0), 40 mM EDTA (pH 8.0), 0.5% SDS, 400 ng RNase A/μl] and incubated at 37° C. for 1 h. The lysate received 200 μl of the digestion buffer [200 mM NaCl, 10 mM Tris-HCl (pH 8.0), 0.5% SDS, 125 ng proteinase K/μl]. The contents were mixed by inversion several times and then incubated at 50° C. for 2 h. An equal volume of a mixture phenol (pH 8.0), chloroform and isoamyl alcohol (25:24:1, v/v) was added, gently mixed for 10 min, and stored at room temperature for 2 min. […] The gel was stained with ethidium bromide and DNA-intercalated ethidium fluorescence was photographed on Polaroid film 665 (P/N) using an orange filter. […]
Detection of DNA Fragmentation Cells (1×10^6) were pelleted in an Eppendorf tube by centrifugation at 1000 rpm for 5 min, washed with phosphate-buffered saline, pH 7.4, resuspended gently in 50 μl of a lysis buffer (200 mM NaCl, 10 mM Tris-HCl, pH 8.0, 40 mM EDTA, pH 8.0, 0.5% SDS, 400 ng of RNase A/μl), and incubated at 37° C. for 1 h. […] The gel was stained with ethidium bromide, and DNA-intercalated ethidium fluorescence was photographed on Polaroid film 665 (P/N) using an orange filter. […]

## CC(=O)N[C@@H](CS)C(=O)O [NAC, N-acetyl cysteine]
[1]
  degradation of sphingomyelin to ceramide / ceramide production: potentially blocked the decrease in sphingomyelin as well as the increase in ceramide; also recorded: blocked diamide-mediated decrease in GSH level and induction of ceramide production; also recorded: blocked the ATZ-mediated increase in ceramide production
[2]
  ceramide formation and DNA fragmentation / apoptosis: inhibited the induction of ceramide formation and DNA fragmentation; also recorded: had no effect on C2-ceramide-mediated apoptosis in oligodendrocytes
